Results reported in patent publication EP1592418B1, “USE OF ENDOCANNABINOID-LIKE COMPOUNDS FOR TREATING CNS DEGENERATIVE DISORDERS” (Research & Innovation S.p.A., priority 2003, dated 2004).

Legend:
[1] = Solubility (physico-chemical properties); type: physicochemical; details: for solubility: organic solvent or mixture, read-out: solubility in organic solvents
[2] = test system: Jurkat cells; assay: Evaluation of cellular viability by MTT assay; type: cell-based, human; details: 10 µM, incubated 18-24 hr, MTT, absorbance 570 nm
Description: Jurkat, an acute T-lymphoblastic leukemia cell line generated from a person, have been used. Cell culture have been cultured in RPMI-1640 culture medium containing 10% FBS.
Jurkat cells were cultured at 1x10^5 cells/ml in RPMI 1640 medium supplemented with 10% fetal bovine serum (FBS), 2mM L-glutamine and 100 U/ml penicillin + 100 ug/ml streptomycin.
To detect drug effect in vitro, MTT [3-(4,5-dimethylthiazol-2-yl)-2,5-diphenyltetrazolium bromide] assay was used as described (Carmichael J et al., 1987 Cancer Res. 47, 936-42). Briefly, cells were seeded in triplicate on 96-well culture plates at a density of 20000 cells/well. The drugs were added in order to have the final concentration of 10 µM (1 µl of a solution of 10mM in DMSO) and incubated for 18-24 hr. Then MTT (0.5 mg/ml) was added to each well, and plates were incubated for an additional 1 to 3 hr in the dark at 37 °C. After this time the MTT solution was aspirated from the wells and 0.1 ml of DMSO was added. The plates were allowed to stand for 10 min, and then the absorbance was determined in a SpectraCount (Packard) microplate reader at 570 nm. The drug effect was determined by comparing absorbances of treated and untreated cells.

[3] = test system: reverse passive Arthus reaction, mouse ear pinna; assay: Reverse passive Arthus reaction (RPA) in the mouse ear pinna: oedema and Evans blue extravasation; type: in vivo; details: mouse ear; for Extravasation / Riduction % (extravasation): 10 mg/Kg i.p.; for Extravasation: Evans blue density at 620 nm in ear homogenate supernatant, Vehicle 0,90±0,06, Naïve 0,04±0,01; for Oedema (mg): 10 mg/Kg intraperitoneally 1 hour before induction, weight increase of 8 mm punch vs contralateral ear, three hours after antigen, Vehicle 49,8 ± 1,2, Naive 23,7 ± 1,2; for Riduction % (extravasation): reduction of extravasation versus Vehicle (0)
Excerpt: The Arthus model (RPA) is a model of immune-complex mediated tissue damage that involves the passive subcutaneous introduction of an antibody and the systemic administration of the corresponding antigen. This inflammatory model has been used to test the in vivo activity of the synthesised molecules.
The reverse passive Arthus reaction is induced, in the mouse ear pinna, by the subcutaneous injection of an excess of IgG anti human albumin followed by i.v. adiministration of the corresponding Ag (i.e. human albumin) together with Evans blue, 2 mg for each mouse, for the evaluation of extravasation.
(§1) The tested molecules were solubilised in DMSO, cremophor and PBS in a ratio of 1:1:18 and administered usually by intraperitonelly at the dosage of 10 mg/Kg 1 hour before the induction of anafilactic reaction. The animals were sacrificed 3 hours after the molecule administration.
The oedema and the extravasations are evaluated tree hours after the i.v. administration of the antigen. The oedema is evaluated as the increase of weight of lesioned ear area dissected by a 8 mm biopsy punch as compared to the contralateral unlesioned auricular tissues. The extravasation is measured determining the Evans blue density at 620 nm in the supernatants deriving from ear homogenates following centrifugation at 10000 x g for 20 min.

[4] = Rectal temperature (central cannabinoid effect, hypothermia); type: in vivo, mouse; details: for ΔT (°C) rectal temperature: treated animals, Vehicle 0,1 ± 0,2
Description: as §1
TABLE 4. Rectal temperature in animals that have been treated with cannabinoids, endocannabinoids or molecules that are object of the present invention. Note a profound hypothermia induced by synthetic cannabinoid such as Win 55,212 or the endocannabinoid Anandamide while no alteration was induced by molecules that are object of the present invention.

SMILES	solubility ([1]; in DMSO and in chloroform)	solubility in water [1]	Growth inhibition (% of control) [2]	Extravasation [3]	Oedema (mg) [3]	Riduction % (extravasation) [3]	ΔT (°C) rectal temperature [4]	solubility in organic solvents ([1]; in DMSO and in chloroform)	rectal temperature (in words) ([4]; mouse, in vivo)
CCCCCCCCCCCCCC(=O)NC(C)C [Example 1, N-isopropyl-myristoyl amide]	> 10000 µg/mL	scarcely soluble	55.0 % of control	0,57±0,03	39,9 ± 2,1 mg	36.7%	0,2 ± 0,3 °C		
CCCCCCCCCCCCCCCC(=O)NC(C)C [Example 2, N-isopropyl-palmitoyl amide]	> 10000 µg/mL	scarcely soluble	55.6 % of control	0,37±0,07	31,8 ± 1,8 mg	58.9%	0,1 ± 0,1 °C		
CCCCCCCCCCCCCCCCCC(=O)NC(C)C [Example 4, N-Isopropyl-stearoyl amide]	> 10000 µg/mL	scarcely soluble	45.3 % of control	0,20±0,03	26,5 ± 0,9 mg	77.8%	0,2 ± 0,1 °C		
CCCCCCCCCCCCCCCCNC(C)=O [Example 12, N-hexadecyl-acetyl-amide]	> 10000 µg/mL	scarcely soluble	64.8 % of control	0,72±0,03	41,5 ± 1,9 mg	20.0%	0,2 ± 0,2 °C		
CCCCCCCCCCCCCCCC(=O)NC1CCCCC1 [Example 15, N-cyclohexyl-palmitoyl amide]		scarcely soluble	63.2 % of control	0,58±0,16	47,5 ± 4,2 mg		0,1 ± 0,1 °C	>10 mg/ml in DMSO and in chloroform	
CCCCCCCCCCCCCCCC(=O)NCC(C)C [Example 25, N-isobutyl-palmitoyl amide]	> 10000 µg/mL	scarcely soluble		0,72±0,07	42,4 ± 2.4 mg	20.0%	0,3 ± 0,1 °C		
CCCCCCCCCCCCCCCC(=O)NC1CCC1 [Example 27, N-cyclobutyl-palmitoyl amide]	> 10000 µg/mL	scarcely soluble	29.2 % of control	0,39±0,11	38,5 ± 0.9 mg	56.7%	0,1 ± 0,1 °C		
CCCCCCCCCCCCCCCCCC(=O)NCCCCC [Example 34, N- pentyl-stearoyl amide]	> 10000 µg/mL	scarcely soluble	34.2 % of control	0,62±0,08	42,5 ± 3.5 mg	31.2%	0,1 ± 0,1 °C		
CCCCCCCCCCCCCCCC(=O)NCCC(C)C [Example 35, N-isopentyl-palmitoyl amide]	> 10000 µg/mL	scarcely soluble	29.2 % of control	0,58±0,09	38,3 ± 1.8 mg	35.6%	0,3 ± 0,2 °C		
CCCCCCCCCCCCCCCCCC(=O)NCCC(C)C [Example 36, N-isopentyl-stearoyl amide]	> 10000 µg/mL	scarcely soluble	30.2 % of control	0,52±0,05	33,7 ± 3.2 mg	42.7%	0,1 ± 0,1 °C		
CCCCCCCCCCCCCCCCCC(=O)NC1CCCC1 [Example 38, N-cyclopentyl-stearoyl amide]	> 10000 µg/mL	scarcely soluble	31.8 % of control	0,51±0,14	32,3 ± 3.3 mg	43.4%	0,2 ± 0,2 °C		
CCCCCCCCCCCCCCCC(N)=O [Palmitoylamide]			33.9 % of control	0,35±0,05	33,2 ± 0.7 mg	61.2%	0,2 ± 0,1 °C		
CCCCCCCCCCCCCCCCCC(N)=O [Starylamide, stearylamide]			35.2 % of control	0,31±0,08	30,8 ± 0.5 mg	65.6%	0,3 ± 0,2 °C		
Cc1c(C(=O)c2cccc3ccccc23)c2cccc3c2n1[C@H](CN1CCOCC1)CO3 [WIN 55.212, reference compound]			79.2 % of control	0,51 ±0,02	33,7 ± 4,6 mg	43.5%	-5,1 ± 1,3 °C		drastic reduction
